# Test results reported in US20220265667A1 (priority 2019, published 2022).
# Read-outs that look alike come from different tables or passages of the source.
# Columns and labels:
# [1] = system: murine bone marrow-derived mast cells (BMMCs); experiment: In vitro release of β-hexosaminidase (degranulation) from IgE-preloaded murine bone marrow-derived mast cells; type: cell-based, mice
# Description: According to the technique established by Razin et al. (Proc. Natl. Acad. Sci. USA 1981, 78:2559-2561), bone marrow cells (1×10^6/ml) from 6 to 8 week old mice (129/Sv×C57BL/6) were cultured (37° C. and 5% CO2) as single cell suspensions in RPMI 1640 medium (Sigma-Aldrich, Munich, Germany) supplemented with 15% fetal calf serum (FCS), 1% X63Ag8-653-conditioned medium (Karasuyama and Melchers, Eur. J. Immunol. 1988, 18:97-104), 2 mM L-glutamine, 10 μM β-mercaptoethanol, 50 units/ml penicillin, and […] streptomycin. At weekly intervals, the non-adherent cells were reseeded at 5×10^5 cells/ml in fresh medium. After 4-6 weeks in culture, greater than 99% of the cells were KIT- and […] as assessed by fluorescence-activated cell sorting (FACS) using phycoerythrin-labeled anti-KIT antibodies (Pharmingen, Mississauga, Canada) and fluorescein isothiocyanate (FITC)-labelled hamster anti-mouse FcεRIα antibodies (eBioscience, Frankfurt, Germany), respectively. The resulting cells are called bone marrow-derived mast cells (BMMCs).
# For degranulation studies, BMMCs were preloaded with 0.15 μg/ml IgE anti-DNP (dinitrophenyl; Sigma Aldrich, Munich, Germany) overnight at 37° C. The cells were then washed and resuspended in Tyrode's buffer (130 mM NaCl, 5 mM KCl, 1.4 mM CaCl2, 1 mM MgCl2, 5.6 mM glucose, and 0.1% bovine serum albumin (BSA) in 10 mM Hepes, pH 7.4).
# Subsequently, the cells were left unstimulated (unst) or stimulated with 20 ng/ml antigen (Ag: dinitrophenyl-human serum albumin ([DNP-HSA]; dissolved in medium); Sigma Aldrich, Munich, Germany) for 30 min. The degree of degranulation was determined by measuring the release of β-hexosaminidase (Nishizumi et al., J Immunol 1997; 158:2350-2355). Experiments were performed in triplicates.
# [2] = system: human nasal tissue mast cells activated with SCF; experiment: Ex vivo SCF-induced tryptase release (degranulation) of human nasal tissue mast cells; type: cell-based; settings: for Tryptase: with SCF; for inhibition at 1 µM / inhibition at 3 µM / inhibition at 10 µM / inhibition at 30 µM / inhibition at 60 µM / inhibition at 150 µM / inhibition at 300 µM / IC50: Homo sapiens, Mast cell; for inhibition at 1 µM / inhibition at 3 µM / inhibition at 10 µM / inhibition at 30 µM / inhibition at 60 µM / inhibition at 150 µM / inhibition at 300 µM: read-out: percentage inhibition of degranulation (tryptase); for IC50: read-out: IC50 ex vivo inhibition of tryptase degranulation; for HillSlope / LogIC50: SCF
# Description: Fresh human nasal mucosa was used (middle nasal turbinate), which was surgically removed as standard procedure during nose correction surgeries (septorhinoplasty with conchotomy). Only tissues from those patients who had not previously received medication in the form of cortisone preparations or antihistamines were used. The removed tissue was cleansed immediately after the surgical removal with Epilife Medium (Thermo Fisher Scientific, No. […]500), referred to as “medium” in terms of ex vivo experiments, a chemically defined, serum-free full medium for epithelial cells and keratinocytes. The tissue was then cut into 12 pieces of equal size, cleansed again in the medium, and the exact fresh weight of the cut tissue pieces was determined for later normalization and then stored overnight in cold medium. The weight of the tissue pieces varied between 10 and 20 mg.
# After an one hour of pre-incubation with the respective compositions i) or ii), 0.4 μg/ml stem cell growth factor (SCF, Peprotech) was added to each well—except for one well serving as the negative control—in order to induce tryptase degranulation. […] Immediately after the removal of 250 μl supernatant, the volume in each well was increased to the original level and the original composition by adding 250 μl of the respective composition i), and ii).
# For the determination of the amount of degranulated tryptase, the frozen supernatants were thawed at 22° C. and then subjected to a tryptase ELISA Kit from Boster Biological Technology Co., Ltd (No. EZ0898, Assay Range: 156-10000 pg/ml, Sensitivity: <15 pg/ml) according to manufacturer's instructions, and the ELISA measurements were performed with the Multiskan Go instrument from Thermo Scientific and the SkanIt Re 4.1 software.
# The statistical analysis was conducted in two steps. In a first step, the raw measurement values were normalized to 10 mg tissue. In a second step, a correction factor was introduced for all time points of supernatant removal to compensate for the 250 μl supernatant taken for analysis at each time and the subsequent re-addition of medium incl. factors. The statistical calculations were performed with Microsoft Excel 2010.
# For the analysis, a non-linear regression (variable slope—4-parametric) was used. The program setting “Dose-Response-Inhibition” was applied for an automatic calculation, readout and display of the IC50 values.
# [3] = Mus musculus, BMMC, read-out: percentage of inhibition of β-hexosaminidase release
structure (smiles),measurement,setting,value
"CCNC1=Nc2ccc(Cl)cc2C(C)(c2ccccc2)O1 (racemic) [Etifoxine, 6-Chloro-2-N-ethyl-4-methyl-4-phenyl-4H-3,1-benzoxazine-2-amine]",inhibition at 10 µM,[1]; [3],30%
same,inhibition at 30 µM,[1]; [3],68%
same,activity (degranulation) of unstimulated IgE-loaded BMMCs,"[1]; unstimulated (absence of Ag), independently of the concentration studied",not significantly affected
same,Tryptase,"[2]; 1 μM Etifoxine, 120 min",12.1 pg/ml/10 mg tissue
same,Tryptase,"[2]; 1 μM Etifoxine, 240 min",1113.7 pg/ml/10 mg tissue
same,Tryptase,"[2]; 1 μM Etifoxine, 480 min",1791.7 pg/ml/10 mg tissue
same,Tryptase,"[2]; 1 μM Etifoxine, 1440 min",5547.4 pg/ml/10 mg tissue
same,Tryptase,"[2]; 3 μM Etifoxine, 120 min",38.7 pg/ml/10 mg tissue
same,Tryptase,"[2]; 3 μM Etifoxine, 240 min",1030.3 pg/ml/10 mg tissue
same,Tryptase,"[2]; 3 μM Etifoxine, 480 min",1789.0 pg/ml/10 mg tissue
same,Tryptase,"[2]; 3 μM Etifoxine, 1440 min",5512.9 pg/ml/10 mg tissue
same,Tryptase,"[2]; 10 μM Etifoxine, 120 min",71.9 pg/ml/10 mg tissue
same,Tryptase,"[2]; 10 μM Etifoxine, 240 min",594.5 pg/ml/10 mg tissue
same,Tryptase,"[2]; 10 μM Etifoxine, 480 min",1284.9 pg/ml/10 mg tissue
same,Tryptase,"[2]; 10 μM Etifoxine, 1440 min",3185.9 pg/ml/10 mg tissue
same,Tryptase,"[2]; 30 μM Etifoxine, 120 min",109.4 pg/ml/10 mg tissue
same,Tryptase,"[2]; 30 μM Etifoxine, 240 min",449.9 pg/ml/10 mg tissue
same,Tryptase,"[2]; 30 μM Etifoxine, 480 min",979.7 pg/ml/10 mg tissue
same,Tryptase,"[2]; 30 μM Etifoxine, 1440 min",2400.2 pg/ml/10 mg tissue
same,Tryptase,[2]; 60 μM Etifoxine,1218.2 pg/ml/10 mg tissue
same,Tryptase,"[2]; 60 μM Etifoxine, 120 min",152.7 pg/ml/10 mg tissue
same,Tryptase,"[2]; 60 μM Etifoxine, 240 min",345.9 pg/ml/10 mg tissue
same,Tryptase,"[2]; 60 μM Etifoxine, 480 min",689.7 pg/ml/10 mg tissue
same,Tryptase,[2]; 150 μM Etifoxine,1040.1 pg/ml/10 mg tissue
same,Tryptase,"[2]; 150 μM Etifoxine, 120 min",163.3 pg/ml/10 mg tissue
same,Tryptase,"[2]; 150 μM Etifoxine, 240 min",576.8 pg/ml/10 mg tissue
same,Tryptase,"[2]; 150 μM Etifoxine, 480 min",1042.4 pg/ml/10 mg tissue
same,Tryptase,"[2]; 300 μM Etifoxine, 120 min",71.9 pg/ml/10 mg tissue
same,Tryptase,"[2]; 300 μM Etifoxine, 240 min",459.3 pg/ml/10 mg tissue
same,Tryptase,"[2]; 300 μM Etifoxine, 480 min",991.8 pg/ml/10 mg tissue
same,Tryptase,"[2]; 300 μM Etifoxine, 1440 min",559.4 pg/ml/10 mg tissue
same,inhibition at 1 µM,[2]; 4 h,0%
same,inhibition at 3 µM,[2]; 4 h,0%
same,inhibition at 10 µM,[2]; 4 h,15%
same,inhibition at 30 µM,[2]; 4 h,56%
same,inhibition at 60 µM,[2]; 4 h,85%
same,inhibition at 150 µM,[2]; 4 h,21%
same,inhibition at 300 µM,[2]; 4 h,53%
same,inhibition at 1 µM,[2]; 8 h,0%
same,inhibition at 3 µM,[2]; 8 h,0%
same,inhibition at 10 µM,[2]; 8 h,28%
same,inhibition at 30 µM,[2]; 8 h,90%
same,inhibition at 60 µM,[2]; 8 h,148%
same,inhibition at 150 µM,[2]; 8 h,77%
same,inhibition at 300 µM,[2]; 8 h,87%
same,IC50,[2]; 4 hours after SCF addition,6.12 µM
same,IC50,[2]; 8 hours after SCF addition,9.07 µM
same,HillSlope,[2]; Tryptase 4 h,−2.791
same,LogIC50,[2]; Tryptase 4 h,0.7865
same,HillSlope,[2]; Tryptase 8 h,−3.492
same,LogIC50,[2]; Tryptase 8 h,0.9578
same,inhibition of SCF-triggered tryptase release (degranulation) achieved (complete),"[2]; summary statement, mast cells of human nasal pieces",100%
